Test results: patent US9255132B2, “Angiopoietin derived peptides” (Compugen Ltd., priority 2008, dated 2016)
Residues, ends and D or L forms follow the SMILES beside them.

What was measured:
[1] = target: T1, recombinant human Ang1 (Homo sapiens, UniProt Q15389); assay: BIACORE (SPR) binding of peptides to immobilized recombinant Ang1; details: CM5 chip, 10-50 μM peptide
T1 construct: purchased R&D Systems 923-AN-025/CF
T1 sequence (Q15389 16-498): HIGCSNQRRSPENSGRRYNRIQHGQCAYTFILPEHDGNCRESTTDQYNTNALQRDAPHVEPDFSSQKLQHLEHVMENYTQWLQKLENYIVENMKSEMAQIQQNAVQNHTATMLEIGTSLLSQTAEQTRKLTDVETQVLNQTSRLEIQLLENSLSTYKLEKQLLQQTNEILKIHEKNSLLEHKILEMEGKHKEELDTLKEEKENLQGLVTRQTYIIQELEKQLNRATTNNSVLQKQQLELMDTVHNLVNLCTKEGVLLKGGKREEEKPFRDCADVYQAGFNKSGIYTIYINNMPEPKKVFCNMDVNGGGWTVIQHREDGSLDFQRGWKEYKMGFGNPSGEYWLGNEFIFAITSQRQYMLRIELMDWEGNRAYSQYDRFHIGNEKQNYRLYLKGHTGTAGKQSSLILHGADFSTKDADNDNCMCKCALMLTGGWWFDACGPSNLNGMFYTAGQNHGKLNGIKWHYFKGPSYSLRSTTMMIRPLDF
Excerpt: (§1) The capability of CGEN-H2 [SEQ ID NO: 1], CGEN-H3 [SEQ ID NO: 2], CGEN-A8 [SEQ ID NO: 3], CGEN-H7 [SEQ ID NO: 4], CGEN-G4 [SEQ ID NO: 5], CGEN-G6 [SEQ ID NO: 6], CGEN-F9 [SEQ ID NO: 7], CGEN-F12 [SEQ ID NO: 8], CGEN-C6-30 [SEQ ID NO: 9], CGEN-All [SEQ ID NO: 10], and CGEN-G2 [SEQ ID NO: 11] to specifically bind to recombinant Ang1, Ang2, and Ang4 was investigated using the BIACORE technology, measuring protein-protein interaction and binding affinity (Wendler et al 2005, Anal Bioanal Chem, 381: 1056-1064). The technology is based on surface plasmon resonance (SPR), an optical phenomenon that enables detection of unlabeled interactants in real time. The SPR-based biosensors can be used in determination of active concentration, screening and characterization in terms of both affinity and kinetics.
(§2) Peptide-protein binding was analyzed using surface plasmon resonance. Analysis of the to interaction between CGEN-H2 [SEQ ID NO: 1], CGEN-H3 [SEQ ID NO: 2], CGEN-A8 [SEQ ID NO: 3], CGEN-H7 [SEQ ID NO: 4], CGEN-G4 [SEQ ID NO: 5], CGEN-G6 [SEQ ID NO: 6], CGEN-F9 [SEQ ID NO: 7], CGEN-F12 [SEQ ID NO: 8], CGEN-C6 [SEQ ID NO: 9], CGEN-A11 [SEQ ID NO: 10], and CGEN-G2 [SEQ ID NO: 11] peptides and recombinant human Ang1 carrier-free (R&D Systems, Cat#923-AN-025/CF, Lot#FHW1507031), human Ang2 carrier-free (R&D Systems, Cat#623-AN-025/CF, Lot#BNO0457121), and human Ang4 carrier-free (R&D Systems, Cat#964-AN-025/CF, Lot#ELM025121) was conducted using the BIAcore biosensor (Pharmacia Biosensor, Uppsala, Sweden). The recombinant Ang1, Ang2, and Ang4 were immobilized directly to a CM5 sensor chip. Solutions containing 10-50 μM of CGEN-H2 [SEQ ID NO: 1], CGEN-H3 [SEQ ID NO: 2], CGEN-A8 [SEQ ID NO: 3], CGEN-H7 [SEQ ID NO: 4], CGEN-G4 [SEQ ID NO: 5], CGEN-G6 [SEQ ID NO: 6], CGEN-F9 [SEQ ID NO: 7], CGEN-F12 [SEQ ID NO: 8], CGEN-C6 [SEQ ID NO: 9], CGEN-A11 [SEQ ID NO: 10], and CGEN-G2 [SEQ ID NO: 11] peptides were injected into the sample chamber of the BIACORE device at a rate of […] and the interaction was monitored using surface plasmon resonance.
(§3) Solutions containing different concentrations of CGEN-G6 [SEQ ID NO: 6], CGEN-F9 [SEQ ID NO: 7], CGEN-F12 [SEQ ID NO: 8], CGEN-A11 [SEQ ID NO: 10], and CGEN-G2 [SEQ ID NO: 11] peptides (as indicated in Table 2) were injected into the sample chamber of the BIACORE device at a rate of […] and the interaction was monitored using surface plasmon resonance. As a background, the solutions were also injected onto an empty flow cell with no immobilized ligand and the in binding levels achieved were subtracted. Data was analyzed using BIAevaluation software. The affinity constant of the interaction between CGEN-G6 [SEQ ID NO: 6], CGEN-F9 [SEQ ID NO: 7], CGEN-F12 [SEQ ID NO: 8], CGEN-C6 [SEQ ID NO: 9], CGEN-A11 [SEQ ID NO: 10], and CGEN-G2 [SEQ ID NO: 11] and Ang1, Ang2, or Ang4 was determined by direct kinetic analysis. The 1:1 Langmuir binding model was used to fit kinetic data.
(§4) Table 2 summarizes results of analysis of CGEN-G6 [SEQ ID NO: 6], CGEN-F9 [SEQ ID NO: 7], CGEN-F12 [SEQ ID NO: 8], CGEN-A11 [SEQ ID NO: 10], and CGEN-G2 [SEQ ID NO: 11] interaction with Ang1, Ang2, or Ang4. Kinetic measurements were done at the indicated concentration range, and they are presented as KD (M). CGEN-F12 [SEQ ID NO: 8] bound to Ang1 and Ang4 with high affinity. The specificity of this binding is not clear.

[2] = target: T2, human Ang4 (Homo sapiens, UniProt Q9Y264); assay: BIACORE (SPR) binding of peptides to immobilized recombinant Ang4; details: CM5 chip, 10-50 μM peptide
T2 construct: purchased R&D Systems 964-AN-025/CF
T2 sequence (Q9Y264 25-503): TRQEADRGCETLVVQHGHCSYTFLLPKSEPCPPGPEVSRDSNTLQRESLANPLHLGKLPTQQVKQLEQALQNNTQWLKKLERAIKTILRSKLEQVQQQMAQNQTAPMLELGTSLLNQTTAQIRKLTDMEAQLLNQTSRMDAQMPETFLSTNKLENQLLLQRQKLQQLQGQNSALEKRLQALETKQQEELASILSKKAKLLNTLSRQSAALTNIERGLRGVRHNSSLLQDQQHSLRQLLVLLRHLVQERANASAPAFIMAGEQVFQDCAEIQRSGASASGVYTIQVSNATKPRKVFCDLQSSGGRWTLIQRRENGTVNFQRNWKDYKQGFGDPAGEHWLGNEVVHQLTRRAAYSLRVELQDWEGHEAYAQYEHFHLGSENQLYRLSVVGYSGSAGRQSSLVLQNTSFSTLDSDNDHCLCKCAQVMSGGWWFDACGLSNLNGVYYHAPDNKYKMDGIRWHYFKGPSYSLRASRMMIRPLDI
Excerpt: as §1, §2, §3, §4

Row | Compound | binding to immobilized Ang1 (in words) [1] | binding to immobilized Ang4 (in words) [2]
1 | CC(=O)N[C@@H](CCC(=O)O)C(=O)N[C@H](C(=O)N[C@@H](Cc1ccccc1)C(=O)N[C@@H](CC(C)C)C(=O)N[C@@H](CO)C(=O)N[C@H](C(=O)N[C@@H](CC(N)=O)C(=O)N[C@@H](CCCCN)C(=O)N[C@@H](CC(C)C)C(=O)N[C@@H](CCC(=O)O)C(=O)N[C@@H](CC(N)=O)C(=O)N[C@@H](CCC(N)=O)C(N)=O)[C@@H](C)O)[C@@H](C)O [CGEN-A11, ETFLSTNKLENQ] (Ac-ETFLSTNKLENQ-NH2) | capable of binding | capable of binding
2 | CC[C@H](C)[C@H](NC(=O)[C@H](C)NC(=O)[C@H](CCCNC(=N)N)NC(=O)[C@H](CCC(=O)O)NC(=O)[C@H](CC(C)C)NC(=O)[C@H](CCCCN)NC(=O)[C@H](CCCCN)NC(=O)[C@H](CC(C)C)NC(=O)[C@H](Cc1c[nH]c2ccccc12)NC(=O)[C@H](CCC(N)=O)NC(=O)[C@@H](NC(=O)[C@H](CC(N)=O)NC(=O)[C@H](CC(N)=O)NC(=O)[C@H](CCC(N)=O)NC(=O)[C@H](CC(C)C)NC(=O)[C@H](C)NC(=O)[C@H](CCC(N)=O)NC(=O)[C@H](CCC(=O)O)NC(=O)[C@H](CC(C)C)NC(=O)[C@H](CCC(N)=O)NC(=O)[C@H](CCCCN)NC(=O)[C@@H](NC(=O)[C@H](CCC(N)=O)NC(=O)[C@H](CCC(N)=O)NC(=O)[C@@H](NC(C)=O)[C@@H](C)O)C(C)C)[C@@H](C)O)C(=O)N[C@@H](CCCCN)C(=O)N[C@H](C(=O)N[C@H](C(=O)N[C@@H](CC(C)C)C(N)=O)[C@@H](C)CC)[C@@H](C)O [CGEN-G2] (Ac-TQQVKQLEQALQNNTQWLKKLERAIKTIL-NH2) | capable of binding | capable of binding
3 | CSCC[C@H](NC(=O)[C@H](CC(C)C)NC(=O)[C@H](CC(=O)O)NC(C)=O)C(=O)N[C@@H](CCC(=O)O)C(=O)N[C@H](C(=O)N[C@H](C(=O)N[C@@H](CC(N)=O)C(=O)N[C@@H](CC(N)=O)C(=O)N[C@@H](CC(C)C)C(=O)N[C@@H](CC(C)C)C(=O)N[C@H](C(=O)N[C@@H](CCSC)C(=O)N[C@@H](CCSC)C(=O)N[C@@H](CO)C(=O)N[C@H](C(=O)N[C@@H](CO)C(=O)N[C@@H](CC(N)=O)C(=O)N[C@@H](CO)C(=O)N[C@@H](C)C(=O)N[C@@H](CCCCN)C(=O)N[C@@H](CC(=O)O)C(N)=O)[C@@H](C)O)[C@@H](C)O)C(C)C)[C@@H](C)O [CGEN-G6] (Ac-DLMETVNNLLTMMSTSNSAKD-NH2) | capable of binding | capable of binding
